Reference: ChEMBL document CHEMBL3638030, “IC50 data for the L-type calcium channel extracted from a set of literature articles”

Legend:
[1] = biological target: T1, Voltage-dependent L-type calcium channel subunit alpha-1C (Mus musculus, UniProt Q01815); test: (§1) Inhibition of Cav1.2 calcium current measured using whole cell patch clamp in mouse ventricular myocytes; format: functional, cell-based, Heart, Ventricular myocyte; design: ca sol conc 2.5 mM, temp 22-24 C
[2] = biological target: T2, Voltage-dependent L-type calcium channel subunit alpha-1C (Rattus norvegicus, UniProt P22002); test: Inhibition of Cav1.2 calcium current measured using whole cell patch clamp in rat Artery myocytes; format: functional, cell-based, Tail; design: ca sol conc 5 mM, temp 20-22 C
[3] = biological target: T2, Voltage-dependent L-type calcium channel subunit alpha-1C; test: (§2) Inhibition of Cav1.2 calcium current measured using whole cell patch clamp in rat ventricular myocytes; format: functional, cell-based, Heart, Ventricular myocyte; design: ca sol conc 2 mM, temp 22-24 C
[4] = biological target: T2, Voltage-dependent L-type calcium channel subunit alpha-1C; test: Inhibition of Cav1.2 calcium current measured using FLIPR in rat aortic A7r5 cells; format: functional, cell-based
[5] = biological target: T3, Voltage-dependent L-type calcium channel subunit alpha-1C (Cavia porcellus, UniProt O35505); test: (§3) Inhibition of Cav1.2 calcium current measured using whole cell patch clamp in guinea pig ventricular myocytes; format: functional, cell-based, Heart, Ventricular myocyte; design: ca sol conc 1.8 mM, temp room
[6] = biological target: T1, Voltage-dependent L-type calcium channel subunit alpha-1C; test: Inhibition of Cav1.2 calcium current measured using in mouse dorsal root ganglion neuron; format: functional, tissue-based; design: temp 20-23 C
[7] = Inhibition of Cav1.2 calcium current measured using whole cell patch clamp in mouse/rat NG108-15; format: functional, cell-based; design: ca sol conc 1.8 mM, temp 20-25 C
[8] = biological target: T2, Voltage-dependent L-type calcium channel subunit alpha-1C; test: as §2; format: functional, cell-based, Heart, Ventricular myocyte; design: ca sol conc 1.8 mM, temp 25-27 C
[9] = biological target: T3, Voltage-dependent L-type calcium channel subunit alpha-1C; test: as §3; format: functional, cell-based, Heart, Ventricular myocyte; design: ca sol conc 5 mM, temp 20-22 C
[10] = biological target: T2, Voltage-dependent L-type calcium channel subunit alpha-1C; test: as §2; format: functional, cell-based, Heart, Ventricular myocyte; design: ca sol conc 1.8 mM
[11] = biological target: T2, Voltage-dependent L-type calcium channel subunit alpha-1C; test: as §2; format: functional, cell-based, Heart, Ventricular myocyte; design: ca sol conc 1 mM, temp 34 C
[12] = biological target: T3, Voltage-dependent L-type calcium channel subunit alpha-1C; test: as §3; format: functional, cell-based, Heart, Ventricular myocyte; design: ca sol conc 1.8 mM
[13] = biological target: T3, Voltage-dependent L-type calcium channel subunit alpha-1C; test: as §3; format: functional, cell-based, Heart, Ventricular myocyte; design: ca sol conc 1.8 mM, temp 25-27 C
[14] = biological target: T3, Voltage-dependent L-type calcium channel subunit alpha-1C; test: as §3; format: functional, cell-based, Heart, Ventricular myocyte; design: ca sol conc 0.5 mM
[15] = biological target: T2, Voltage-dependent L-type calcium channel subunit alpha-1C; test: Inhibition of Cav1.2 calcium current measured using whole cell patch clamp in rat myocyte; format: functional, Heart, Cardiac Muscle Cell; design: ca sol conc 1.8 mM
[16] = biological target: T3, Voltage-dependent L-type calcium channel subunit alpha-1C; test: as §3; format: functional, cell-based, Heart, Ventricular myocyte; design: ca sol conc 1.8 mM, temp 37 C
[17] = biological target: T4, Voltage-dependent L-type calcium channel subunit alpha-1C (Homo sapiens, UniProt Q13936); test: (§4) Inhibition of Cav1.2 calcium current measured using whole cell patch clamp in human atrial myocytes; format: functional, cell-based, Heart, Cardiac Muscle Cell; design: ca sol conc 2 mM, temp 22/37 C
[18] = biological target: T3, Voltage-dependent L-type calcium channel subunit alpha-1C; test: as §3; format: functional, cell-based, Heart, Ventricular myocyte; design: ca sol conc 2 mM, temp 22/37 C
[19] = biological target: T3, Voltage-dependent L-type calcium channel subunit alpha-1C; test: as §3; format: functional, cell-based, Heart, Ventricular myocyte; design: ca sol conc 1.8 mM, temp 35-36 C
[20] = biological target: T2, Voltage-dependent L-type calcium channel subunit alpha-1C; test: Inhibition of Cav1.2 calcium current measured using whole cell patch clamp in rat atrial myocytes; format: functional, cell-based, Heart, Cardiac Muscle Cell; design: ca sol conc 2 mM, temp 22-24 C
[21] = biological target: T3, Voltage-dependent L-type calcium channel subunit alpha-1C; test: as §3; format: functional, cell-based, Heart, Ventricular myocyte; design: ca sol conc 1.2 mM, temp 24 pm 1 C
[22] = biological target: T5, Voltage-dependent L-type calcium channel subunit alpha-1C (Oryctolagus cuniculus, UniProt P15381); test: (§5) Inhibition of Cav1.2 calcium current measured using whole cell patch clamp in rabbit ventricular myocytes; format: functional, cell-based, Heart, Ventricular myocyte; design: ca sol conc 1 - BaCl2 mM, temp 37 C
[23] = biological target: T3, Voltage-dependent L-type calcium channel subunit alpha-1C; test: as §3; format: functional, cell-based, Heart, Ventricular myocyte; design: ca sol conc 2 mM, temp 21-23 C
[24] = biological target: T3, Voltage-dependent L-type calcium channel subunit alpha-1C; test: Inhibition of Cav1.2 calcium current measured using whole cell patch clamp in guinea pig atrial myocytes; format: functional, cell-based, Heart, Cardiac Muscle Cell; design: ca sol conc 1.8 mM, temp 36 pm 1 C
[25] = biological target: T1, Voltage-dependent L-type calcium channel subunit alpha-1C; test: as §1; format: functional, cell-based, Heart, Ventricular myocyte; design: ca sol conc 2 mM, temp room
[26] = biological target: T1, Voltage-dependent L-type calcium channel subunit alpha-1C; test: as §1; format: functional, cell-based, Heart, Ventricular myocyte; design: ca sol conc 2 mM, temp room; remark: listed apart in the source
[27] = biological target: T5, Voltage-dependent L-type calcium channel subunit alpha-1C; test: as §5; format: functional, cell-based, Heart, Ventricular myocyte; design: ca sol conc 1.8 mM, temp 34 C
[28] = biological target: T3, Voltage-dependent L-type calcium channel subunit alpha-1C; test: as §3; format: functional, cell-based, Heart, Ventricular myocyte; design: ca sol conc 1.8 mM, temp 24-26 C
[29] = biological target: T1, Voltage-dependent L-type calcium channel subunit alpha-1C; test: as §1; format: functional, cell-based, Heart, Ventricular myocyte; design: ca sol conc 2 mM, temp room; remark: listed apart in the source
[30] = biological target: T2, Voltage-dependent L-type calcium channel subunit alpha-1C; test: as §2; format: functional, cell-based, Heart, Ventricular myocyte; design: ca sol conc 1.8 mM, temp 25 C
[31] = biological target: T4, Voltage-dependent L-type calcium channel subunit alpha-1C; test: as §4; format: functional, cell-based, Heart, Cardiac Muscle Cell; design: ca sol conc 1.8 mM, temp 25 C
[32] = biological target: T3, Voltage-dependent L-type calcium channel subunit alpha-1C; test: as §3; format: functional, cell-based, Heart, Ventricular myocyte; design: ca sol conc 1.8 mM, temp 35 pm 0.5 C

T2 sequence (P22002 whole entry): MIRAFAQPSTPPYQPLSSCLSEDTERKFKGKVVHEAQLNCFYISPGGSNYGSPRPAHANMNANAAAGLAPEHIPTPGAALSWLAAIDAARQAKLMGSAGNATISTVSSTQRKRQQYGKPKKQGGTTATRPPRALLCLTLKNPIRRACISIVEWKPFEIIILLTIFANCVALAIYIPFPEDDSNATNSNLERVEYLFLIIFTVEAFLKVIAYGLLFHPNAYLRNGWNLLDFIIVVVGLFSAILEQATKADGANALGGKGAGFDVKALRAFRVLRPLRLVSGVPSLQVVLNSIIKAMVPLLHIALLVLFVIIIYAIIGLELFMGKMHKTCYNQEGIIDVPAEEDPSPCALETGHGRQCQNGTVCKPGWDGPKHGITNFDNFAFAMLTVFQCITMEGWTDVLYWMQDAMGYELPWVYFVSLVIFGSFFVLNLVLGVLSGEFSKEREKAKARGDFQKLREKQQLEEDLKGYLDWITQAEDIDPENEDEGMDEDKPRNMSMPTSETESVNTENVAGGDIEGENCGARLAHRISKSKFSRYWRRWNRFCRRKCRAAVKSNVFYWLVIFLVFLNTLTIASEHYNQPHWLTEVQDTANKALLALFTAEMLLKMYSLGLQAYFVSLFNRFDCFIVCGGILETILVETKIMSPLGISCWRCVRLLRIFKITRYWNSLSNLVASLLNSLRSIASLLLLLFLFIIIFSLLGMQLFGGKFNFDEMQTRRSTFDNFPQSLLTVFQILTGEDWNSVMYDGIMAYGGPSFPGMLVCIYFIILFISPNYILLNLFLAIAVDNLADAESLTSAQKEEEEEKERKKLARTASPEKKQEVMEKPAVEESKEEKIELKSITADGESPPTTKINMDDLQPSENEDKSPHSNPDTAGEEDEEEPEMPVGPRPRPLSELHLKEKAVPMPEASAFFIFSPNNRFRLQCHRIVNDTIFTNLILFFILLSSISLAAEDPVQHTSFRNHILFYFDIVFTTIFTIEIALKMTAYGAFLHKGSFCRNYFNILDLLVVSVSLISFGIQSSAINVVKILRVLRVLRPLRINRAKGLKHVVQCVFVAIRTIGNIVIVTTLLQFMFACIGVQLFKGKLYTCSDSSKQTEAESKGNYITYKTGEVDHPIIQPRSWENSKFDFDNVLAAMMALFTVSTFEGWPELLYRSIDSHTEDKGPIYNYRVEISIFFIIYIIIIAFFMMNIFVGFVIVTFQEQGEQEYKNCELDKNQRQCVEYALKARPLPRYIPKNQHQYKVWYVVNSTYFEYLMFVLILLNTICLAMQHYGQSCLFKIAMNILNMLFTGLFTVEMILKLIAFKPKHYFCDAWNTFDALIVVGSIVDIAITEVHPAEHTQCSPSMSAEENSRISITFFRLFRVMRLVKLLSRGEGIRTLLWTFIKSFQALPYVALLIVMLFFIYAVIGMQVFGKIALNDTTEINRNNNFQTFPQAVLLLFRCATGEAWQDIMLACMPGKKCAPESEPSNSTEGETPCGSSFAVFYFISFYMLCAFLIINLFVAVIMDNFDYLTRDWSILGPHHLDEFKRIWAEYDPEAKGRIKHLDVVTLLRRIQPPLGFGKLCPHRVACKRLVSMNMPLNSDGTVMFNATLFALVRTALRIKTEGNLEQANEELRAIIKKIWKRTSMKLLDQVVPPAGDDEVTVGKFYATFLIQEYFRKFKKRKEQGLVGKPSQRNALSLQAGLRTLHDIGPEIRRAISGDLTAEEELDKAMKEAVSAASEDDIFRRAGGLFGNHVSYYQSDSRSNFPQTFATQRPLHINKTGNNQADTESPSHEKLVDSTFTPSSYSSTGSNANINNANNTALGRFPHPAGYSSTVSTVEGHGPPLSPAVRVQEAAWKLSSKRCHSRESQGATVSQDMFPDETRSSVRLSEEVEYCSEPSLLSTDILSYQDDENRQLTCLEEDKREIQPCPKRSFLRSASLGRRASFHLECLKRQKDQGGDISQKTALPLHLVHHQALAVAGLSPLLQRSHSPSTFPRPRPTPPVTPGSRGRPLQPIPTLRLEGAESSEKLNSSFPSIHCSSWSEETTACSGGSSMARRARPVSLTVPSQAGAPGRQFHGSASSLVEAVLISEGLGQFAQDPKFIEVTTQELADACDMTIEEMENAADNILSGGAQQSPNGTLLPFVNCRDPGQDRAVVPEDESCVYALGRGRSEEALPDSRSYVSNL
T3 sequence (O35505 whole entry): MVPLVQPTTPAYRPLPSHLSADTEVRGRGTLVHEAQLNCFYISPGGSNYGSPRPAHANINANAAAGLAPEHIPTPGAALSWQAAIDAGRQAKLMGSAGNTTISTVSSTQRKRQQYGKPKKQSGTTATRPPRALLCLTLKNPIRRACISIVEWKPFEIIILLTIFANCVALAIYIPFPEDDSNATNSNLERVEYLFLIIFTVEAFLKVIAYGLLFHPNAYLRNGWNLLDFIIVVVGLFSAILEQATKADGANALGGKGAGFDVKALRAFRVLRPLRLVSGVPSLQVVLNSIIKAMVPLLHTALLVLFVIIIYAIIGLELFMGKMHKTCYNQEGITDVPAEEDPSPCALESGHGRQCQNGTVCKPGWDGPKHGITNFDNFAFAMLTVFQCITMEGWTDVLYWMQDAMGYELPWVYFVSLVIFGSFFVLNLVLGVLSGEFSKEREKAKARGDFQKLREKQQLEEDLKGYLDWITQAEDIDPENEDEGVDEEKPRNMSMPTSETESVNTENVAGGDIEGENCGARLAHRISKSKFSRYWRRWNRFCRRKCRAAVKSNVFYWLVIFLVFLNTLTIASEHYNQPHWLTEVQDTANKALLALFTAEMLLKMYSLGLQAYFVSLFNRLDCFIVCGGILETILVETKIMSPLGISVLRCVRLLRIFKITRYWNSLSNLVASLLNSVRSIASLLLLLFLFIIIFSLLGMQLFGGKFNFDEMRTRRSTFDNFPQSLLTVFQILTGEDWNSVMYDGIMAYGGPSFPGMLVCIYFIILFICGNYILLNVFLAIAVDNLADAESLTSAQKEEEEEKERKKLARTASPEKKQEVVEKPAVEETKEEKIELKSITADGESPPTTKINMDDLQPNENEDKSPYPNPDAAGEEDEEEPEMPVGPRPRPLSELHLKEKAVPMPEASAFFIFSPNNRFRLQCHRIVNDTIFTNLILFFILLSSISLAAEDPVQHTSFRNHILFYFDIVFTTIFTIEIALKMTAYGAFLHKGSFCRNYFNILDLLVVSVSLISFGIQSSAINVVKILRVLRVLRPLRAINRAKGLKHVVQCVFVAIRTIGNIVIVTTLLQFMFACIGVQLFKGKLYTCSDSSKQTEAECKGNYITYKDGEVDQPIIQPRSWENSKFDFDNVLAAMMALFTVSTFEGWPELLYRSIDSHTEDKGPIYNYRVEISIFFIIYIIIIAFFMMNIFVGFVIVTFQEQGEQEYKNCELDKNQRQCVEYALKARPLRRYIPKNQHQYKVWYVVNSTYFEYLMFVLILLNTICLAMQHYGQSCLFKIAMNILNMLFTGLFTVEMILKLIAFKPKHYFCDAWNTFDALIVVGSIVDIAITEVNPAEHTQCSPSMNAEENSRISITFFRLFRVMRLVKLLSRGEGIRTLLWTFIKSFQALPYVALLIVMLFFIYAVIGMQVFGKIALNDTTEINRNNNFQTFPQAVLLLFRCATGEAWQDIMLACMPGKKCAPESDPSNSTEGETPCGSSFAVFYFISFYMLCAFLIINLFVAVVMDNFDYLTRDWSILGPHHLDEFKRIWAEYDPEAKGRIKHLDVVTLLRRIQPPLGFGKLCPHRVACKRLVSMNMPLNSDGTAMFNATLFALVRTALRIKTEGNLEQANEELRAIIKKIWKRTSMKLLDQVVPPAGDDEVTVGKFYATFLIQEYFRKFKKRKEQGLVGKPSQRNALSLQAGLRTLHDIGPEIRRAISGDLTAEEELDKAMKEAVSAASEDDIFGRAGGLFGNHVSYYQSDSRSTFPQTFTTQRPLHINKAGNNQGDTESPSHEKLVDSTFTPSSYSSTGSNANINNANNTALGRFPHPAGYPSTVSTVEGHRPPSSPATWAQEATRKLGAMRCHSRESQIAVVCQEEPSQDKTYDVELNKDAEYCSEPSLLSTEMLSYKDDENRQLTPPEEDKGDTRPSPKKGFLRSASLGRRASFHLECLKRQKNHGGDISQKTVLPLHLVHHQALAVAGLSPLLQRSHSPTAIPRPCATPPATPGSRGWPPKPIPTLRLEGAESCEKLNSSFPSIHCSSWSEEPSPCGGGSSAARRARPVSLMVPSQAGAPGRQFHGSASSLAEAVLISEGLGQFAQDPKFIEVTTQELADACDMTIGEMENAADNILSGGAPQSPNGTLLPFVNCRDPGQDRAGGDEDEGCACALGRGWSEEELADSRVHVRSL

CCC(C)(C)C(=O)O[C@H]1C[C@@H](C)C=C2C=C[C@H](C)[C@H](CC[C@@H](O)C[C@@H](O)CC(=O)O)[C@H]21 [TENIVASTATIN]
IC50 [1]: 3.9 µM

O=c1cc(-c2ccccc2O)oc2cc(O)cc(O)c12
IC50 [2]: 45.1 µM

C=C(C)[C@@H]1CCC(C)=C[C@H]1c1c(O)cc(CCCCC)cc1O [CANNABIDIOL]
IC50 [3]: 0.1 µM

COc1ccccc1CCN1CCC(CC(=O)N[C@@H](c2ccc(F)cc2)C(C)C)CC1
IC50 [4]: 6.8 µM

N#Cc1cc2c(OCC(O)CN3CCN(C(c4ccccc4)c4ccccc4)CC3)cccc2[nH]1 (stereo not drawn)
IC50 [5]: 1.1 µM

CC(C)(c1ccc(O)cc1)c1ccc(O)cc1 [BISPHENOL A]
IC50 [6]: 35 µM

Cc1cc(O)c(C(C)C)cc1CN1CCCCC1
IC50 [7]: 3.6 µM

O=C1c2ccccc2-c2c3c(cc4ccnc1c24)OCO3 [LIRIODENINE]
IC50 [8]: 2.5 µM

COCCOc1c(F)cccc1CCN1CCC(CC(=O)N[C@@H](c2ccc(F)cc2)C(C)C)CC1
IC50 [4]: 2.1 µM

CC1=C(C(=O)OC(C)C)[C@H](c2cccc3nonc23)C([N+](=O)[O-])=C(C)N1 (mixture of isomers)
IC50 [9]: 0.08 µM

CC(C)CC(N(C)C)C1(c2ccc(Cl)cc2)CCC1 (stereo not drawn) [SIBUTRAMINE]
IC50 [10]: 9.97 µM

COC(=O)CCc1ccc(OCC(O)CNC(C)C)cc1 (stereo not drawn) [ESMOLOL]
IC50 [11]: 450 µM

CC(C)[C@@H](NC(=O)CC1CCN(CCc2ccccc2)CC1)c1ccc(F)cc1
IC50 [4]: 10 µM

COc1ccc2c(c1)CN(C(=O)CCN1CCC(Cc3ccccc3)CC1)CCS2
IC50 [12]: 3 µM

COc1ccc2c(=O)c3c(n(Cc4ccccc4)c2c1)OCC3=O
IC50 [13]: 4 µM

COc1ccc2c(c1OC)C[N+]1(Cc3ccc(Cl)cc3)CCc3cc4c(cc3C1C2)OCO4 (stereo not drawn)
IC50 [14]: 11.5 µM

O=C1CC(c2ccc(O)cc2)Oc2cc(O)cc(O)c21 (racemic)
IC50 [2]: 100 µM

CC(/N=C(\NC#N)Nc1ccc(OC(F)F)cc1)C(C)(C)C (stereo not drawn)
IC50 [15]: 24.1 µM

COc1cc(C[C@H](C)[C@@H](C)C(=O)c2ccc(O)c(OC)c2)ccc1O
IC50 [13]: 7.5 µM

COC(=O)C1=CCCN(C)C1 [ARECOLINE]
IC50 [16]: 33.7 µM

CCCOC(C(=O)OC1CCN(C)CC1)(c1ccccc1)c1ccccc1 [PROPIVERINE]
IC50 [17]: 41.7 µM
IC50 [18]: 34.7 µM

CC(CC(c1ccccc1)c1ccccc1)NC(C)(C)C (stereo not drawn) [TERODILINE]
IC50 [19]: 33.5 µM

O=C1CSC(c2ccccc2Cl)c2cc(Cl)ccc2N1 (stereo not drawn)
IC50 [20]: 0.27 µM

CCN(CC)CCCC(C)Nc1c2ccc(Cl)cc2nc2ccc(OC)cc12 (stereo not drawn) [QUINACRINE]
IC50 [21]: 5.6 µM

CC(C)[C@@H]1CC[C@@H](C)C[C@H]1O [LEVOMENTHOL]
IC50 [22]: 74.6 µM

O=c1c(O)c(-c2ccc(O)cc2)oc2cc(O)ccc12 [RESOKAEMPFEROL]
IC50 [2]: 27.5 µM

CCCN1CCCC[C@H]1C(=O)Nc1c(C)cccc1C [ROPIVACAINE]
IC50 [23]: 430 µM

COCC(=O)O[C@]1(CCN(C)CCCc2nc3ccccc3[nH]2)CCc2cc(F)ccc2[C@@H]1C(C)C [MIBEFRADIL]
IC50 [4]: 1.1 µM

CC(C)COCC(CN(Cc1ccccc1)c1ccccc1)N1CCCC1 (stereo not drawn) [BEPRIDIL]
IC50 [24]: 1.55 µM

O=C(/C=C/c1ccc(O)c(O)c1)OCCc1ccccc1 [CAFFEIC ACID PHENETHYL ESTER]
IC50 [13]: 1.1 µM

COc1ccc(CCN(C)CCCOc2ccc(S(=O)(=O)c3c(C(C)C)cn4ccccc34)cc2)cc1OC [FANTOFARONE]
IC50 [25]: 0.0014 µM
IC50 [26]: 0.15 µM

COc1ccc2c(c1OC)[C@@H]1Cc3cc4c(cc3[C@H](C2)N1C)OCO4
IC50 [8]: 6.6 µM

COc1ccccc1OCCNCC(O)COc1cccc2[nH]c3ccccc3c12 (stereo not drawn) [CARVEDILOL]
IC50 [27]: 3.59 µM

CC(=O)N(CCOc1cccc2ccccc12)CCc1ccc(NS(C)(=O)=O)cc1
IC50 [28]: 0.909 µM

COCCOc1cccc(F)c1CCN1CCC(CC(=O)N[C@@H](c2ccc(F)cc2)C(C)C)CC1
IC50 [4]: 3.1 µM

COc1ccc(CCN(C)CCCOc2ccc(S(=O)(=O)c3c(C(C)C)c4ccccc4n3C)cc2)cc1OC
IC50 [29]: 0.033 µM
IC50 [25]: 0.0041 µM
IC50 [30]: 0.024 µM

CNC1(c2ccccc2Cl)CCCCC1=O (stereo not drawn) [KETAMINE]
IC50 [31]: 1.8 µM

Cc1c(C)c2c(c(C)c1O)CCC(C)(COc1ccc(CC3SC(=O)NC3=O)cc1)O2 (stereo not drawn) [TROGLITAZONE]
IC50 [32]: 0.8 µM

CCC(CC)(CNC(=O)C1CCN(CCc2ccccc2)CC1)c1ccc(F)cc1
IC50 [4]: 4.4 µM
